# Experimental data: patent publication US20140274684A1, “Compounds, Compositions, and Methods for Altering Behavior of Insects Or Other Organisms” (BAYER CROPSCIENCE LP, priority 2013, published 2014)
# Test system: honeybees
# Experiment: honeybee repulsion experiment at feeding stations with 50% sucrose
# Format: in vivo
# Conditions: 2% by weight in 50% sucrose
# Description: FIG. 1 describes the feeding station arrangement (A and B) for the honeybee repulsion experiments described herein. As set forth in FIG. 1, panel (A) sets forth the bee cage positions on the left portion of panel (A) with the randomized feeding station positions on the right portion of panel (A). Panel (B) sets forth an alignment of the randomized feeding station positions with a distance of two meters between feeding stations. A total of eight feeding stations were evaluated at a ten meter distance in front of the respective bee hives. The feeding stations were placed two meters apart from one another.
# Honeybees were trained to deep feeders (eight positions), each containing a 50% sucrose solution for one day. After the honeybees were trained to each feeder, the 50% sucrose feeder at randomized positions 1-8 was replaced with a shallow feeder containing a combination of repelling compounds and a 50% sucrose solution according to Table 5. In accordance with FIGS. 5 and 6, 2% by weight of Camphor oil (T4), Ajowan oil (T5), Camphor powder (T6), Rosemary oil (T7), and 2-Decanone (T8) in combination with a 50% sucrose treatment were added to feeders on day two.
# Table 5 describes active agents evaluated for bee repulsion and their randomized feeding station positions. As described in Table 5, T1 (control), T2 (control), T3 (control), T4 (Camphor oil), T5 (Ajowan oil), T6 (Camphor powder), T7 (Rosemary oil), and T8 (2-Decanone).
# FIG. 5 evaluates the number of bees visiting a respective feed station over a time interval. FIG. 6 sets forth the mean number of honeybees visiting feeding station over a period of four hours.
smiles,measurement,setting,value
"CCCCCCCCC(C)=O [2-Decanone, 2-decanone]",repellency to honeybees visiting feeding station,at/after 24 hours,exhibited repellency
same,repellency to honeybees visiting feeding station,"at/after 24 hours, listed as 2-decanone",still repellent
same,repellency to honeybees visiting feeding station,full 4 hour assessment period,highly repellent
